Tests used:
Type in all cases: cell-based
[1] = test system: TANOUE cells (human B cell leukemia cells); assay: Proliferation assay (alamarBlue) with TANOUE cells; conditions: for activity at 20 µM: Table 63 (novel compounds), read-out: Activity Range: weighted arithmetic mean (AVEw) of normalized fluorescence intensity relative to DMSO basis level 1.0
From the text: (§1) The antiproliferative activities of compounds falling under formula (Ia), (Ib) and (Ic), respectively, were investigated on cells or cell lines originating from a disorder of the haematopoietic system, including the myeloid cell compartment and the lymphoid cell compartment (T-cells and B-cells), the neuroendocrine system, the cervix, the breast, the ovaries, the lung, the gastrointestinal tract, and the mucosal epithelium, as well as from the skin epithelium and from the muscle. To this end, HL-60 cells, NB-4 cells, HH cells, RPMI-8402 cells, TANOUE cells, TT cells, HeLa cells, MDA-MB-231 cells, FU-OV-1 cells, LOU-NH91 cells, 23132/87 cells, CAL-27 cells, BHY cells, SCC-25 cells, A-431 cells, human primary epidermal keratinocytes (HPEK), and C2C12 cells were seeded into 96-well plates suitable for fluorescence assays (CORNING #3598) at following initial cell numbers: 1000 cells per well for HL-60; 1000 cells per well for NB-4; 5000 cells per well for HH; 5000 cells per well for RPMI-8402; 1500 cells per well for TANOUE; 9000 cells per well for TT; 2000 cells per well for HeLa; 3000 cells per well for MDA-MB-231; 3000 cells per well for FU-OV-1; 4000 cells per well for LOU-NH91; 2000 cells per well for 23132/87; 2000 cells per well for CAL-27; 1500 cells per well for BHY; 1500 cells per well for SCC-25; 700 cells per well for A-431; 1000 cells per well for HPEK; 500 cells per well for C2C12. The cells were treated with compounds at indicated final concentrations (diluted from the 1000× stock-solutions in DMSO to a final DMSO concentration of 0.1% v/v in H2O (Water For Injection, WFI, Fisherscientific #10378939)) or with the empty carrier DMSO at 0.1% v/v as control for 5 days. At day 5 after starting the treatments the cells were subjected to the alamarBlue® Proliferation Assay (Bio-Rad Serotec GmbH, BUF012B) according to the protocol of the manufacturer. The readout was taken with a multi-well plate-reader in the fluorescence mode with applying a filter for excitation at 560 nm (band width 10 nm) and for emission at 590 nm (band width 10 nm). Control treatments for growth inhibition with commercial compounds such as Methotrexate (MTREX) and Resveratrol (RES) were included on every plate. Some of the test compounds of the present invention were obtained and applied as their salts. According cases are indicated in the column “Specification” in Table 55 to Table 92 and by their sum formula in Table 93.
(§2) The assays were performed in duplicate or more replicates of independent single experiments each containing a six-fold replicate for every condition. For every individual plate, the measured fluorescence intensity values of the conditions with compound treatment were normalized against the corresponding equally weighted arithmetic mean of the fluorescence intensity values of the six DMSO treated control wells in order to obtain the relative values to a baseline level of 1.0.
(§3) Two independent outlier analyses were performed according to the methods by Peirce and Chauvenet (Ross, Journal of Engineering Technology 2003, 1-12). Outliers confirmed by at least one of the methods were excluded from the calculations but not more than one value out of six per compound within a single experiment. The weighted arithmetic mean (here abbreviated as AVEw) for each compound was calculated from the normalized values over all independent replicates of the single experiments comprising the six replicates each. The corresponding standard deviation for the weighted arithmetic mean was calculated according to the method described by Bronstein et al. (Bronstein, Semendjajew, Musiol, Müihlig, Taschenbuch der Mathematik, 5th edition 2001 (German), publisher: Verlag Harri Deutsch, Frankfurt am Main and Thun) and was combined with the Gauß' error propagation associated with the performed calculation for the normalization. The resulting standard deviation is herein referred to as “combined standard deviation”. […]

[2] = test system: NB-4 cells (human acute promyelocytic leukemia cells); assay: Proliferation assay (alamarBlue) with NB-4 cells
From the text: as §1, §2, §3

[3] = test system: HL-60 cells (human acute myeloid leukemia cells); assay: Proliferation assay (alamarBlue) with HL-60 cells
From the text: as §1, §2, §3

[4] = test system: HeLa cells (human cervical adenocarcinoma cells); assay: Proliferation assay (alamarBlue) with HeLa cells
From the text: as §1, §2, §3

[5] = test system: 23132/87 cells (human gastric adenocarcinoma cells); assay: Proliferation assay (alamarBlue) with 23132/87 cells; conditions: for Activity Range (weighted arithmetic mean AVEw of normalized fluorescence intensity, relative to DMSO basis level 1.0): 20 μM; for Activity Range (weighted arithmetic mean of normalized fluorescence intensity, relative to DMSO basis level 1.0): control at 40 μM
From the text: as §1, §2, §3

[6] = Homo sapiens, B-cell, compound at 20 μM
[7] = compound at 20 μM, Table 64 (compounds of PCT/EP2018/054686)
[8] = 20 μM, relative to DMSO basis level 1.0, Table 57 (novel compounds)
[9] = 20 μM, relative to DMSO basis level 1.0, Table 58 (compounds disclosed in PCT/EP2018/054686)
[10] = 20 μM, relative to DMSO basis level 1.0, Table 55 (novel compounds)
[11] = 20 μM, relative to DMSO basis level 1.0, Table 56 (compounds disclosed in PCT/EP2018/054686)
[12] = compound at 20 μM, Table 67 (novel compounds)
[13] = compound at 20 μM, Table 68 (compounds of PCT/EP2018/054686)
[14] = Table 76 (compounds disclosed in PCT/EP2018/054686)

## CN(Cc1cnc2nc(N)nc(N)c2n1)c1ccc(C(=O)N[C@@H](CCC(=O)O)C(=O)O)cc1 [MTREX, Methotrexate]
[1]; [6]
  activity at 20 µM: 10%
[1]; [7]
  Activity Range: weighted arithmetic mean (AVEw) of normalized fluorescence intensity relative to DMSO basis level 1.0: 0.1 ± 0.0
[2]; [8]
  Activity Range: weighted arithmetic mean (AVEw) of normalized fluorescence intensity, proliferation assay with NB-4 cells: 0.1 ± 0.0
[2]; [9]
  Activity Range: weighted arithmetic mean (AVEw) of normalized fluorescence intensity, proliferation assay with NB-4 cells: 0.1 ± 0.0
[3]; [10]
  Activity Range: weighted arithmetic mean (AVEw) of normalized fluorescence intensity, proliferation assay with HL-60 cells: 0.1 ± 0.1
[3]; [11]
  Activity Range: weighted arithmetic mean (AVEw) of normalized fluorescence intensity, proliferation assay with HL-60 cells: 0.1 ± 0.1
[4]; [12]
  Activity Range: weighted arithmetic mean (AVEw) of normalized fluorescence intensity relative to DMSO basis level 1.0: 0.4 ± 0.0
[4]; [13]
  Activity Range: weighted arithmetic mean (AVEw) of normalized fluorescence intensity relative to DMSO basis level 1.0: 0.4 ± 0.0
[5]; Table 75 (novel compounds)
  Activity Range (weighted arithmetic mean AVEw of normalized fluorescence intensity, relative to DMSO basis level 1.0): 0.3 ± 0.0
[5]; [14]
  Activity Range (weighted arithmetic mean AVEw of normalized fluorescence intensity, relative to DMSO basis level 1.0): 0.3 ± 0.0

## Oc1ccc(C=Cc2cc(O)cc(O)c2)cc1 [RES, Resveratrol]
[1]; [6]
  activity at 20 µM: 10%
[1]; Homo sapiens, B-cell, control at 40 μM, Table 63, read-out: Activity Range: weighted arithmetic mean (AVEw) of normalized fluorescence intensity relative to DMSO basis level 1.0
  activity at 40 µM: 0%
[1]; [7]
  Activity Range: weighted arithmetic mean (AVEw) of normalized fluorescence intensity relative to DMSO basis level 1.0: 0.1 ± 0.0
[1]; control at 40 μM, Table 64
  Activity Range: weighted arithmetic mean (AVEw) of normalized fluorescence intensity relative to DMSO basis level 1.0: 0.0 ± 0.0
[2]; [8]
  Activity Range: weighted arithmetic mean (AVEw) of normalized fluorescence intensity, proliferation assay with NB-4 cells: 0.1 ± 0.0
[2]; [9]
  Activity Range: weighted arithmetic mean (AVEw) of normalized fluorescence intensity, proliferation assay with NB-4 cells: 0.1 ± 0.0
[2]; control at 40 μM, relative to DMSO basis level 1.0, Table 57
  Activity Range: weighted arithmetic mean (AVEw) of normalized fluorescence intensity, proliferation assay with NB-4 cells: 0.0 ± 0.0
[2]; control at 40 μM, relative to DMSO basis level 1.0, Table 58
  Activity Range: weighted arithmetic mean (AVEw) of normalized fluorescence intensity, proliferation assay with NB-4 cells: 0.0 ± 0.0
[3]; [10]
  Activity Range: weighted arithmetic mean (AVEw) of normalized fluorescence intensity, proliferation assay with HL-60 cells: 0.4 ± 0.1
[3]; [11]
  Activity Range: weighted arithmetic mean (AVEw) of normalized fluorescence intensity, proliferation assay with HL-60 cells: 0.4 ± 0.1
[3]; control at 40 μM, relative to DMSO basis level 1.0, Table 55
  Activity Range: weighted arithmetic mean (AVEw) of normalized fluorescence intensity, proliferation assay with HL-60 cells: 0.2 ± 0.1
[3]; control at 40 μM, relative to DMSO basis level 1.0, Table 56
  Activity Range: weighted arithmetic mean (AVEw) of normalized fluorescence intensity, proliferation assay with HL-60 cells: 0.2 ± 0.1
[4]; [12]
  Activity Range: weighted arithmetic mean (AVEw) of normalized fluorescence intensity relative to DMSO basis level 1.0: 0.9 ± 0.0
[4]; [13]
  Activity Range: weighted arithmetic mean (AVEw) of normalized fluorescence intensity relative to DMSO basis level 1.0: 0.9 ± 0.0
[4]; control at 40 μM, Table 67
  Activity Range: weighted arithmetic mean (AVEw) of normalized fluorescence intensity relative to DMSO basis level 1.0: 0.4 ± 0.1
[4]; control at 40 μM, Table 68
  Activity Range: weighted arithmetic mean (AVEw) of normalized fluorescence intensity relative to DMSO basis level 1.0: 0.4 ± 0.1
[5]; Table 75 (novel compounds)
  Activity Range (weighted arithmetic mean AVEw of normalized fluorescence intensity, relative to DMSO basis level 1.0): 0.5 ± 0.1
[5]; [14]
  Activity Range (weighted arithmetic mean AVEw of normalized fluorescence intensity, relative to DMSO basis level 1.0): 0.5 ± 0.1
[5]; Table 75
  Activity Range (weighted arithmetic mean of normalized fluorescence intensity, relative to DMSO basis level 1.0): 0.2 ± 0.0
[5]; Table 76
  Activity Range (weighted arithmetic mean of normalized fluorescence intensity, relative to DMSO basis level 1.0): 0.2 ± 0.0
